Results taken from ChEMBL document CHEMBL3608202, “Biarylmethoxy 2-nitroimidazooxazine antituberculosis agents: Effects of proximal ring substitution and linker reversal on metabolism and efficacy” (Bioorg Med Chem Lett, 2015).
Converted amounts (≈) assume the structure as drawn.

Assays:
[1] = test system: Mycobacterium tuberculosis; experiment: Antimycobacterial activity against Mycobacterium tuberculosis H37Rv after 8 days by MABA assay; type: functional; conditions: 192 h
[2] = test system: Mycobacterium tuberculosis; experiment: Antimycobacterial activity against Mycobacterium tuberculosis H37Rv after 11 days by LORA assay; type: functional; conditions: 264 h
Vero = experiment: Cytotoxicity against African green monkey Vero cells after 72 hrs; type: cell-based; conditions: Chlorocebus sabaeus
[3] = Metabolic stability in human liver microsomes assessed as compound remaining after 1 hr; type: ADME; conditions: read-out: Stability
[4] = Metabolic stability in CD1 mouse liver microsomes assessed as compound remaining after 1 hr; type: ADME; conditions: read-out: Stability
[5] = test system: Mycobacterium tuberculosis; experiment: Antimycobacterial activity against Mycobacterium tuberculosis infected in mouse assessed as fold reduction of colony forming units in lungs at 100 mg/kg, po administered for 5 days a week for 3 weeks beginning on day 11 post-infection relative to pretomanid; type: functional
Plasma = experiment: AUC (0 to infinity) in CD1 mouse plasma at 40 mg/kg, po; type: ADME, organism-based; set-up: dose 40 mg/kg, route oral, time infinity; conditions: in vivo
Lung = experiment: AUC (0 to infinity) in CD1 mouse lung at 40 mg/kg, po; type: ADME, organism-based; set-up: dose 40 mg/kg, time infinity, route oral; conditions: in vivo
[6] = test system: Mycobacterium tuberculosis; experiment: Ratio of pretomanid MIC90 to compound MIC90 for Mycobacterium tuberculosis H37Rv after 8 days by MABA assay; type: functional
[7] = test system: Mycobacterium tuberculosis; experiment: Ratio of pretomanid MIC90 to compound MIC90 for Mycobacterium tuberculosis H37Rv after 11 days by LORA assay; type: functional
[8] = test system: Mycobacterium tuberculosis; experiment: Antimycobacterial activity against Mycobacterium tuberculosis infected in mouse assessed as fold reduction of colony forming units in lungs at 100 mg/kg, po administered for 5 days a week for 3 weeks beginning on day 70 post-infection relative to control; type: functional
[9] = Cmax in CD1 mouse plasma at 40 mg/kg, po; type: ADME, organism-based; set-up: dose 40 mg/kg, route oral
[10] = Half life in CD1 mouse plasma at 40 mg/kg, po; type: ADME, organism-based
[11] = Cmax in CD1 mouse lung at 40 mg/kg, po; type: ADME, organism-based; set-up: dose 40 mg/kg, route oral
[12] = Half life in CD1 mouse lung at 40 mg/kg, po; type: ADME, organism-based
[13] = Ratio of AUC (0 to infinity) in CD1 mouse lung to AUC (0 to infinity) in CD1 mouse plasma at 40 mg/kg, po; type: ADME, organism-based; conditions: read-out: Ratio AUC

| Structure (SMILES) | MIC90 [1] [µM] | MIC90 [2] [µM] | IC50 (Vero) [µM] | remaining at 1 h [3] [%] | remaining at 1 h [4] [%] | also measured |
| --- | --- | --- | --- | --- | --- | --- |
| O=[N+]([O-])c1cn2c(n1)OC[C@@H](OCc1c(F)cc(-c3ccc(C(F)(F)F)nc3)cc1F)C2 | 0.35 (≈ 0.16 µg/mL) | 2.9 (≈ 1.32 µg/mL) | 43 | – | – | – |
| O=[N+]([O-])c1cn2c(n1)OCC(COCc1ccc(OC(F)(F)F)cc1)C2 (stereo unspecified) | – | – | 46 | 71 | 41 | – |
| O=[N+]([O-])c1cn2c(n1)OC[C@@H](OCc1ccc(-c3ccc(OC(F)(F)F)cc3)cc1Cl)C2 | 0.17 (≈ 0.0799 µg/mL) | 1.6 (≈ 0.752 µg/mL) | > 128 | 99 | 100 | Ratio [5]: 2.1 |
| O=[N+]([O-])c1cn2c(n1)OC[C@@H](OCc1ccc(-c3ccc(OC(F)(F)F)cc3)cc1)C2 | – | – | – | – | – | AUC (Plasma): 198 µg/h/mL; AUC (Lung): 218 µg/h/mL |
| O=[N+]([O-])c1cn2c(n1)OC[C@@H](OCc1ccc(-c3ccc(OC(F)(F)F)cc3)cc1OC(F)(F)F)C2 | 0.45 (≈ 0.234 µg/mL) | 7.5 (≈ 3.9 µg/mL) | > 128 | 97 | 100 | – |
| O=[N+]([O-])c1cn2c(n1)OCC(COc1ccc(OC(F)(F)F)cc1)C2 (stereo unspecified) | – | – | > 128 | – | – | – |
| O=[N+]([O-])c1cn2c(n1)OC[C@@H](OCc1ccc(OC(F)(F)F)cc1)C2 [PRETOMANID] | 0.5 (≈ 0.18 µg/mL) | 2.6 (≈ 0.934 µg/mL) | – | 82 | – | – |
| O=[N+]([O-])c1cn2c(n1)OCC(COCc1ccc(-c3ccc(C(F)(F)F)cc3)cc1)C2 (stereo unspecified) | 0.49 (≈ 0.212 µg/mL) | > 128 | 38 | – | – | – |
| O=[N+]([O-])c1cn2c(n1)OC[C@@H](COc1ccc(OC(F)(F)F)cc1)C2 | 0.23 (≈ 0.0826 µg/mL) | 1.9 (≈ 0.683 µg/mL) | > 128 | 91 | 80 | Ratio [5]: 0.7; Ratio [6]: 2; Ratio [7]: 5 |
| O=[N+]([O-])c1cn2c(n1)OCC(COc1ccc(-c3ccc(C(F)(F)F)cc3)nc1)C2 (stereo unspecified) | 0.22 (≈ 0.0925 µg/mL) | 1.3 (≈ 0.546 µg/mL) | > 128 | – | – | – |
| O=[N+]([O-])c1cn2c(n1)OCC(COCc1ccc(-c3ccc(F)cc3)cc1)C2 (stereo unspecified) | 0.47 (≈ 0.18 µg/mL) | 7.9 (≈ 3.03 µg/mL) | 24 | – | – | – |
| O=[N+]([O-])c1cn2c(n1)OCC(COc1ccc(-c3ccc(OC(F)(F)F)cc3)nc1)C2 (stereo unspecified) | 0.15 (≈ 0.0655 µg/mL) | 6.9 (≈ 3.01 µg/mL) | > 128 | – | – | – |
| O=[N+]([O-])c1cn2c(n1)OCC(COc1ccc(-c3ccc(OC(F)(F)F)cc3)cn1)C2 (stereo unspecified) | 0.045 (≈ 0.0196 µg/mL) | 100 (≈ 43.6 µg/mL) | > 128 | – | – | – |
| O=[N+]([O-])c1cn2c(n1)OC[C@H](COc1ccc(OC(F)(F)F)cc1)C2 | 0.5 (≈ 0.18 µg/mL) | 9 (≈ 3.23 µg/mL) | > 128 | 90 | 72 | Ratio [5]: 0.41; Ratio [6]: 2; Ratio [7]: 5 |
| O=[N+]([O-])c1cn2c(n1)OC[C@@H](OCc1ccc(-c3ccc(OC(F)(F)F)cc3)c(F)c1)C2 | 0.055 (≈ 0.0249 µg/mL) | 0.51 (≈ 0.231 µg/mL) | > 128 | – | – | – |
| O=[N+]([O-])c1cn2c(n1)OC[C@@H](OCc1ccc(-c3ccc(C(F)(F)F)cn3)cc1F)C2 | 0.055 (≈ 0.0241 µg/mL) | 2.3 (≈ 1.01 µg/mL) | > 128 | 90 | 77 | Ratio [5]: 51 |
| O=[N+]([O-])c1cn2c(n1)OCC(COc1ccc(-c3ccc(OC(F)(F)F)cc3)cc1)C2 (stereo unspecified) | 0.14 (≈ 0.061 µg/mL) | > 128 | > 128 | 100 | 93 | Ratio [5]: 2 |

| Structure (SMILES) | MIC90 [1] [µM] | MIC90 [2] [µM] | IC50 (Vero) [µM] | remaining at 1 h [3] [%] | remaining at 1 h [4] [%] | also measured |
| --- | --- | --- | --- | --- | --- | --- |
| N#Cc1cc(-c2ccc(OC(F)(F)F)cc2)ccc1CO[C@@H]1COc2nc([N+](=O)[O-])cn2C1 | 0.053 (≈ 0.0244 µg/mL) | 0.45 (≈ 0.207 µg/mL) | > 128 | 91 | 88 | Ratio [5]: 2.9 |
| O=[N+]([O-])c1cn2c(n1)OCC(COCc1ccc(-c3ccc(OC(F)(F)F)cc3)cc1)C2 (stereo unspecified) | 0.3 (≈ 0.135 µg/mL) | > 128 | > 128 | – | – | – |
| O=[N+]([O-])c1cn2c(n1)OC[C@@H](OCc1c(F)cc(-c3ccc(OC(F)(F)F)cc3)cc1F)C2 | 0.06 (≈ 0.0283 µg/mL) | 1.5 (≈ 0.707 µg/mL) | > 128 | 95 | 94 | Ratio [5]: 0.98 |
| O=[N+]([O-])c1cn2c(n1)OC[C@@H](OCc1ccc(-c3ccc(C(F)(F)F)nc3)cc1F)C2 | 0.13 (≈ 0.057 µg/mL) | 0.68 (≈ 0.298 µg/mL) | > 128 | 96 | 78 | Ratio [5]: 13 |
| O=[N+]([O-])c1cn2c(n1)OC[C@@H](OCc1ccc(-c3ccc(C(F)(F)F)nc3)c(F)c1)C2 | 0.25 (≈ 0.11 µg/mL) | 0.9 (≈ 0.395 µg/mL) | > 128 | – | – | – |
| N#Cc1cc(-c2ccc(C(F)(F)F)nc2)ccc1CO[C@@H]1COc2nc([N+](=O)[O-])cn2C1 | 0.28 (≈ 0.125 µg/mL) | 1.1 (≈ 0.49 µg/mL) | > 128 | – | – | – |
| COc1cc(-c2ccc(OC(F)(F)F)cc2)ccc1CO[C@@H]1COc2nc([N+](=O)[O-])cn2C1 | 0.64 (≈ 0.298 µg/mL) | 5.5 (≈ 2.56 µg/mL) | > 128 | 88 | 87 | – |
| O=[N+]([O-])c1cn2c(n1)OC[C@@H](OCc1ccc(-c3ccc(OC(F)(F)F)cc3)cc1F)C2 | 0.017 (≈ 0.00771 µg/mL) | 1.2 (≈ 0.544 µg/mL) | > 128 | 93 | 85 | Ratio [5]: 33; Ratio [8]: 2.2; AUC (Plasma): 202 µg/h/mL; Cmax [9]: 6700 ng/mL; half-life [10]: 22.3 h; AUC (Lung): 549 µg/h/mL; Cmax [11]: 12100 ng/mL; half-life [12]: 28.1 h; Kp [13]: 2.7 |
| O=[N+]([O-])c1cn2c(n1)OCC(COc1ccc(-c3ccc(C(F)(F)F)cc3)cn1)C2 (stereo unspecified) | 0.04 (≈ 0.0168 µg/mL) | 109 (≈ 45.8 µg/mL) | > 128 | – | – | – |
| O=[N+]([O-])c1cn2c(n1)OC[C@@H](OCc1ccc(-c3ccc(OC(F)(F)F)cc3)c(Cl)c1)C2 | 0.21 (≈ 0.0987 µg/mL) | 1.5 (≈ 0.705 µg/mL) | > 128 | – | – | – |
| O=[N+]([O-])c1cn2c(n1)OCC(COc1ccc(-c3ccc(F)cc3)cc1)C2 (stereo unspecified) | 0.03 (≈ 0.0111 µg/mL) | 108 (≈ 39.9 µg/mL) | > 128 | – | – | – |
| O=[N+]([O-])c1cn2c(n1)OCC(COc1ccc(-c3ccc(F)cc3)cn1)C2 (stereo unspecified) | 0.03 (≈ 0.0111 µg/mL) | 25 (≈ 9.26 µg/mL) | > 128 | – | – | – |
| O=[N+]([O-])c1cn2c(n1)OC[C@@H](OCc1c(Cl)cc(-c3ccc(OC(F)(F)F)cc3)cc1Cl)C2 | 0.62 (≈ 0.313 µg/mL) | 11 (≈ 5.55 µg/mL) | > 128 | 98 | 93 | – |
| O=[N+]([O-])c1cn2c(n1)OC[C@@H](OCc1ccc(-c3ccc(OC(F)(F)F)cc3)c[n+]1[O-])C2 | 0.05 (≈ 0.0226 µg/mL) | 32 (≈ 14.5 µg/mL) | > 128 | – | – | – |
| O=[N+]([O-])c1cn2c(n1)OC[C@@H](OCc1ccc(-c3ccc(OC(F)(F)F)cc3)cc1C(F)(F)F)C2 | 0.65 (≈ 0.327 µg/mL) | 2.4 (≈ 1.21 µg/mL) | > 128 | 100 | 96 | – |
| O=[N+]([O-])c1cn2c(n1)OCC(COc1ccc(-c3ccc(C(F)(F)F)cc3)cc1)C2 (stereo unspecified) | 0.035 (≈ 0.0147 µg/mL) | 100 (≈ 41.9 µg/mL) | > 128 | – | – | – |
| O=[N+]([O-])c1cn2c(n1)OCC(COc1ccc(-c3ccc(F)cc3)nc1)C2 (stereo unspecified) | 0.15 (≈ 0.0556 µg/mL) | 2 (≈ 0.741 µg/mL) | > 128 | – | – | – |
